Assay results from ChEMBL document CHEMBL1158627, “Non-basic ligands for aminergic GPCRs: the discovery and development diaryl sulfones as selective, orally bioavailable 5-HT2A receptor antagonists for the treatment of sleep disorders” (Bioorg Med Chem Lett, 2010).
Each block holds one compound with its values, some of them ahead of it. Active and inactive are the calls of the source. The rule behind the calls is not given here.

Columns and labels:
[1] = Drug level in rat brain at 5 mg/kg, po administered with imwittor/tween by electrospray mass spectrometry; format: ADME, organism-based; parameters: dose 5 mg/kg, route oral
[2] = target: 5-hydroxytryptamine receptor 2A (Homo sapiens, UniProt P28223); test: biochemical
5-hydroxytryptamine receptor 2A, sequence (P28223 whole entry): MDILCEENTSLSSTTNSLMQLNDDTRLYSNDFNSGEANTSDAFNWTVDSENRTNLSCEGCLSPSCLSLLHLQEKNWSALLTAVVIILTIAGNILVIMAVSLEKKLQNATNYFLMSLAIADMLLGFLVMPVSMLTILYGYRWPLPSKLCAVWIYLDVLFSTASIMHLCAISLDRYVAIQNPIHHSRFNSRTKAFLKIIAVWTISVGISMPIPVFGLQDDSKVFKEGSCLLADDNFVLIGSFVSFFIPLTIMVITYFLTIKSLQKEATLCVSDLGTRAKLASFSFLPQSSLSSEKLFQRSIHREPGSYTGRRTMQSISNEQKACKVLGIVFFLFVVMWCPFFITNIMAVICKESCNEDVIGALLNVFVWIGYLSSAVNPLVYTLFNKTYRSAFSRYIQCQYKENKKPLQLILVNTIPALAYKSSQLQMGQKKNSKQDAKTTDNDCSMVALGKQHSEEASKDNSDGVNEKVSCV
Description: Displacement of [3H]- ketanserin from human 5HT2A receptor expressed CHO cells

[3] = Drug level in rat cardiac plasma at 5 mg/kg, po administered with imwittor/tween by electrospray mass spectrometry; format: ADME, organism-based; parameters: dose 5 mg/kg, route oral
[4] = Drug level in rat hepatic portal vein plasma at 5 mg/kg, po administered with methocel suspension by electrospray mass spectrometry; format: ADME, organism-based; parameters: dose 5 mg/kg, route oral
[5] = Drug level in rat brain at 5 mg/kg, po administered with methocel suspension by electrospray mass spectrometry; format: ADME, organism-based; parameters: dose 5 mg/kg, route oral
[6] = target: Voltage-gated inwardly rectifying potassium channel KCNH2 (Homo sapiens, UniProt Q12809); test: Displacement of [3H]-dofetilide from human ERG receptor expressed HEK cells
Voltage-gated inwardly rectifying potassium channel KCNH2, sequence (Q12809 whole entry): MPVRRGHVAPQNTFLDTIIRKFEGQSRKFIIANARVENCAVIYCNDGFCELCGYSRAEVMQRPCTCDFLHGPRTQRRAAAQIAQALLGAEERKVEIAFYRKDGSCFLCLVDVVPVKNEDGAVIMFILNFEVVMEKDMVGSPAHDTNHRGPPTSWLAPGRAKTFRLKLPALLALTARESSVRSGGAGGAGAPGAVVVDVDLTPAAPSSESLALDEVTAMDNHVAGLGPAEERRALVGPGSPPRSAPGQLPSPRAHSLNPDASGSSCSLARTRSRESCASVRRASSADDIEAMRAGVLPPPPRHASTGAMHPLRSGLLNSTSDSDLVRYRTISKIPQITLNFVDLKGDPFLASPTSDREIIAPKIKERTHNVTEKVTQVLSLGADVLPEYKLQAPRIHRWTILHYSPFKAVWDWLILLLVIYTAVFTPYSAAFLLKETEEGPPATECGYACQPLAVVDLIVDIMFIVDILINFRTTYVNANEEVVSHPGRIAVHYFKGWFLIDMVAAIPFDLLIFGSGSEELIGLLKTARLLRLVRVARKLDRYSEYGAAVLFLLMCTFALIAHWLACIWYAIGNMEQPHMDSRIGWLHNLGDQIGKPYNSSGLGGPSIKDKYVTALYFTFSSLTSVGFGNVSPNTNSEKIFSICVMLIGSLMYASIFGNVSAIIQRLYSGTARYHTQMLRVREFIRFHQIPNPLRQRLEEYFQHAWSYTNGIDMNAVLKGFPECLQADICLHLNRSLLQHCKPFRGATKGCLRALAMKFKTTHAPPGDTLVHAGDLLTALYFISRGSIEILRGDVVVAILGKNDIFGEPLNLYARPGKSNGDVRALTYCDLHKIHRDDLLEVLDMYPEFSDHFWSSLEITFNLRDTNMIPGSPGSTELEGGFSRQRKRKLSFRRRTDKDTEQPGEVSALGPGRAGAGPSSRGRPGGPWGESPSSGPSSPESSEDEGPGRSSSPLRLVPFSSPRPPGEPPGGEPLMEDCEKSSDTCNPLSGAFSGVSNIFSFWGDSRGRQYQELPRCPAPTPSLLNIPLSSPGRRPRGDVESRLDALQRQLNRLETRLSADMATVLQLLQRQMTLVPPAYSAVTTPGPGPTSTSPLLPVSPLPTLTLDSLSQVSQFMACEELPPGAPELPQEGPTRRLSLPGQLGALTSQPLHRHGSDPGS

[7] = Drug level in rat hepatic portal vein plasma at 5 mg/kg, po administered with imwittor/tween by electrospray mass spectrometry; format: ADME, organism-based; parameters: dose 5 mg/kg, route oral
[8] = Metabolic stability in human liver microsomes assessed as compound turnover after 0.25 hrs by LC/MS/MS analysis; parameters: dose or concentration left out as unconfirmed
Rattus norvegicus [9] = test: Ex vivo receptor occupancy of 5HT2A receptor in rat brain at 10 mg/kg, po after 0.5 hrs; format: functional
[10] = Drug level in rat cardiac plasma at 5 mg/kg, po administered with methocel suspension by electrospray mass spectrometry; format: ADME, organism-based; parameters: dose 5 mg/kg, route oral
[11] = target: T1, 5-hydroxytryptamine receptor 2C (Homo sapiens, UniProt P28335); test: biochemical
T1 sequence (P28335 whole entry): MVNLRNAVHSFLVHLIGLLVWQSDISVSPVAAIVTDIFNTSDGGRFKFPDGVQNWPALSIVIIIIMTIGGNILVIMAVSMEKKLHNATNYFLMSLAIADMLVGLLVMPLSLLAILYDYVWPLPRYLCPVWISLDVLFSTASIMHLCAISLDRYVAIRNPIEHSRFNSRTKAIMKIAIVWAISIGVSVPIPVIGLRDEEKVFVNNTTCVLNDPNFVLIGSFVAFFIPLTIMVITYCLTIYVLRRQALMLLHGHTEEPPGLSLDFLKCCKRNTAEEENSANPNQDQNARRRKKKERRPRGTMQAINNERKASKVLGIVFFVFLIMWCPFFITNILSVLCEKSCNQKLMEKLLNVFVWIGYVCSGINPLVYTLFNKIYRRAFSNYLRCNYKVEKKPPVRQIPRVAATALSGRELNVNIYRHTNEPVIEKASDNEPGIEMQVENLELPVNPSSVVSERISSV
Description: Displacement of [3H]mesulergine from human 5HT2C receptor expressed CHO cells

[12] = target: Cytochrome P450 2C9 (Homo sapiens) (UniProt P11712); test: Inhibition of CYP2C9
Cytochrome P450 2C9 (Homo sapiens), sequence (P11712 whole entry, looked up): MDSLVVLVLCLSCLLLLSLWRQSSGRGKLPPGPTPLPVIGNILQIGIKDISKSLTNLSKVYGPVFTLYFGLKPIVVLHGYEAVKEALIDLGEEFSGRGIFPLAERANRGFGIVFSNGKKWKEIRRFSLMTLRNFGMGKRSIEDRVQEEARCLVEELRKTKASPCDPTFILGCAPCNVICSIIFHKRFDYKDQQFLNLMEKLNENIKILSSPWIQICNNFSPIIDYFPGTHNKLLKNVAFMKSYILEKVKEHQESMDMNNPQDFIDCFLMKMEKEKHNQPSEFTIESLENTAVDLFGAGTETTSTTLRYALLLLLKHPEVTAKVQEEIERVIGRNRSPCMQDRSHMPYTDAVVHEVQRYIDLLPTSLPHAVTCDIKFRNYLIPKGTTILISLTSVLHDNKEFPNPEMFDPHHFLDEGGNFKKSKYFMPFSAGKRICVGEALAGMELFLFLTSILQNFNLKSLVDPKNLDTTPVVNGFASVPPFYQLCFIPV

Rattus norvegicus [13] = test: Ex vivo receptor occupancy of 5HT2A receptor in rat brain at 5 mg/kg, po after 0.5 hrs; format: functional
[14] = Plasma clearance in dog at 0.1 mg/kg, iv and 1 mg/kg, po; format: ADME, organism-based, Canis lupus familiaris
Rattus norvegicus [15] = test: Inhibition of ex vivo receptor occupancy of 5HT2A receptor in rat brain at 10 mg/kg, po after 0.5 hrs; format: functional
[16] = Plasma clearance in rhesus monkey at 0.1 mg/kg, iv and 1 mg/kg, po; format: ADME, organism-based, Macaca mulatta
[17] = Plasma clearance in Sprague-Dawley rat at 0.1 mg/kg, iv and 1 mg/kg, po; format: ADME, organism-based
[18] = Half life in rhesus monkey at 0.1 mg/kg, iv and 1 mg/kg, po; format: ADME, organism-based, Macaca mulatta; conditions: in vivo
[19] = Drug level in rat brain at 10 mg/kg, po after 0.5 hrs; format: ADME, organism-based; parameters: dose 10 mg/kg, route oral; conditions: read-out: Drug uptake
[20] = Metabolic stability in rhesus monkey liver microsomes assessed as compound remaining […] after 0.25 hrs by LC/MS/MS analysis; format: ADME, Macaca mulatta, Microsome; conditions: read-out: Stability
[21] = Half life in dog at 0.1 mg/kg, iv and 1 mg/kg, po; format: ADME, organism-based, Canis lupus familiaris; conditions: in vivo
[22] = Metabolic stability in rat liver microsomes assessed as compound remaining […] after 0.25 hrs by LC/MS/MS analysis; format: ADME, Microsome; conditions: read-out: Stability
[23] = Metabolic stability in dog liver microsomes assessed as compound remaining […] after 0.25 hrs by LC/MS/MS analysis; format: ADME, Canis lupus familiaris, Microsome; conditions: read-out: Stability
[24] = Half life in Sprague-Dawley rat at 0.1 mg/kg, iv and 1 mg/kg, po; format: ADME, organism-based; conditions: in vivo
[25] = Plasma concentration in rat at 10 mg/kg, po after 0.5 hrs; format: ADME, organism-based; parameters: dose 10 mg/kg, route oral
Rattus norvegicus [26] = test: Ex vivo receptor occupancy of 5HT2A receptor in rat brain at 1 mg/kg, po after 0.5 hrs; format: functional
[27] = Chemical stability in acetonitrile/water at pH 1 to 10 after 5 days; format: physicochemical; conditions: pH 1, 120 h
[28] = Bioavailability in rat; format: ADME, organism-based; conditions: in vivo
[29] = Inhibition of cytochrome P450 at > 30 uM; format: ADME
Rattus norvegicus [30] = test: Increase of slow wave sleep in rat at 3 mg/kg, po after 15 hrs by EEG recordings; format: functional, organism-based; parameters: dose 3 mg/kg
Rattus norvegicus [31] = test: Sedative activity in rat assessed effect on sleep onset at 3 mg/kg, po after 15 hrs; format: ADME, organism-based; parameters: dose 3 mg/kg, route oral; conditions: in vivo
[32] = target: Cytochrome P450 2C9 (Homo sapiens) (UniProt P11712); test: Inhibition of CYP2C9 at 6 uM
Rattus norvegicus [33] = test: Ex vivo receptor occupancy of 5HT2A receptor in rat brain at <1 mg/kg, po after 2 hrs; format: functional
[34] = Inhibition of CYP1A at 4.8 uM; format: ADME
[35] = Plasma concentration in rat at <1 mg/kg, po after 2 hrs; format: ADME, organism-based
Canis familiaris [36] = test: Cardiotoxicity in dog assessed as increase of QT interval up to 10 mg/kg, iv; format: toxicity, organism-based, Canis lupus familiaris; parameters: dose 10 mg/kg, route intravenous; conditions: in vivo
[37] = Stability after 5 days; format: physicochemical; conditions: 120 h
Canis familiaris [38] = test: Cardiotoxicity in dog assessed as increase of heart rate up to 10 mg/kg, iv; format: toxicity, organism-based, Canis lupus familiaris; parameters: dose 10 mg/kg, route intravenous; conditions: in vivo
[39] = Volume of distribution at steady state in Sprague-Dawley rat at 0.1 mg/kg, iv and 1 mg/kg, po; format: ADME, organism-based; conditions: in vivo, read-out: Vdss
[40] = Induction of cytochrome P450 activity at 10 uM; format: ADME
[41] = Bioavailability in rhesus monkey; format: ADME, organism-based, Macaca mulatta; conditions: in vivo
[42] = Bioavailability in dog; format: ADME, organism-based, Canis lupus familiaris; conditions: in vivo
Rattus norvegicus [43] = test: Sedative activity in rat assessed effect on time spent on rapid eye movement sleep at 3 mg/kg, po after 15 hrs; format: ADME, organism-based; parameters: dose 3 mg/kg, route oral; conditions: in vivo
Mus musculus = test: Phototoxicity in mouse assessed as formation of erythema at 10 to 2000 mg/kg, po; format: organism-based; parameters: dose 10-2000 mg/kg, route oral; conditions: in vivo
Rattus norvegicus [44] = test: Ex vivo receptor occupancy of 5HT2A receptor in rat brain at 3 mg/kg, po after 2 hrs; format: functional, organism-based; parameters: dose 3 mg/kg
Rattus norvegicus [45] = test: Decrease of number of awakenings in rat at 3 mg/kg, po after 15 hrs by EMG recordings; format: functional, organism-based; parameters: dose 3 mg/kg
Rhesus monkey = test: Plasma concentration in rhesus monkey; format: ADME, organism-based, Macaca mulatta; conditions: in vivo

Structure (SMILES): O=S(=O)(c1ccc(/C=C/c2ccc(F)cc2)cc1)c1ccccc1CO
- IC50 [12]: 100 nM

Structure (SMILES): CC(O)c1ccccc1S(=O)(=O)c1ccc(/C=C/c2ccc(F)cc2)cc1 (racemic)
- Ki [2]: 0.07 nM
- Ki [6]: 4 µM
- turnover at 0.25 h [8]: < 10%
- Activity (Rattus norvegicus [9]): 85%
- Ki [11]: 7 nM
- Activity (Rattus norvegicus [13]): 99%

Structure (SMILES): NC(=O)c1cccc(S(=O)(=O)c2ccc(/C=C/c3ccc(F)cc3F)cc2)c1
- Ki [2]: 0.2 nM
- inhibition in vivo at 10 mg/kg (Rattus norvegicus [15]): 50%
- Ki [6]: > 9 µM
- turnover at 0.25 h [8]: 3%
- Activity (Rattus norvegicus [9]): 50%
- concentration at 0.5 h [19]: 40 nM
- Ki [11]: 21 nM
- concentration at 0.5 h [25]: 40 nM

Structure (SMILES): NC(=O)c1ccc(S(=O)(=O)c2ccc(/C=C/c3ccc(F)cc3F)cc2)cc1
- Ki [2]: 0.65 nM
- inhibition in vivo at 10 mg/kg (Rattus norvegicus [15]): 53%
- Ki [6]: 7.92 µM
- turnover at 0.25 h [8]: 0%
- concentration at 0.5 h [19]: 620 nM
- Ki [11]: 41 nM
- concentration at 0.5 h [25]: 300 nM

Structure (SMILES): C[C@H](O)c1ccccc1S(=O)(=O)c1ccc(/C=C/c2ccc(F)cc2)cc1
- Activity (Rattus norvegicus [26]): 83%
- Stability [27]: Stable
- bioavailability [28]: 44%
- Ki [2]: 0.22 nM
- IC50 [29]: > 30 µM
- clearance [14]: 8 mL/min/kg
- clearance [16]: 32 mL/min/kg
- clearance [17]: 95 mL/min/kg
- Activity (Rattus norvegicus [30]): Active
- half-life [18]: 128 min
- Activity (Rattus norvegicus [31]): Non-toxic
- INH [32]: 6 µM
- Ki [6]: 8.25 µM
- Activity (Rattus norvegicus [33]): 80%
- IC50 [34]: 4.8 µM
- turnover at 0.25 h [8]: 45%
- concentration at 2 h [35]: 60 nM
- Activity (Canis familiaris [36]): Non-toxic
- Stability [37]: Stable
- remaining at 0.25 h [20]: 44%
- half-life [21]: 0.131 days
- Activity (Canis familiaris [38]): Non-toxic
- Vd [39]: 19 L/kg
- Activity [40]: 8%
- remaining at 0.25 h [22]: 50%
- bioavailability [41]: 10%
- Ki [11]: 47 nM
- bioavailability [42]: 45%
- Activity (Rattus norvegicus [43]): Non-toxic
- Activity (Mus musculus): Toxic
- Activity (Rattus norvegicus [44]): Active
- Activity (Rattus norvegicus [45]): Active
- concentration (Rhesus monkey): 170 nM
- remaining at 0.25 h [23]: 34%
- half-life [24]: 228 min

Continued, in another order:

- AUC [1]: 1.96 µM·h
- Ki [2]: 1.32 nM
- AUC [3]: 0.79 µM·h
- AUC [4]: 0.46 µM·h
- AUC [5]: 0.38 µM·h
- AUC [7]: 6.39 µM·h
- turnover at 0.25 h [8]: 33%
- AUC [10]: 0.09 µM·h
- Ki [11]: 65 nM
Structure (SMILES): O=S(=O)(c1ccccc1)c1ccc(/C=C/c2ccc(F)cc2F)cc1
- Ki [6]: 4.34 µM
- Activity (Rattus norvegicus [9]): 40%

- Ki [2]: 1.43 nM
- turnover at 0.25 h [8]: 84%
- Ki [11]: 526 nM
Structure (SMILES): O=S(=O)(c1ccccc1)c1ccc(CCc2ccc(F)cc2F)cc1
- Ki [6]: > 9 µM

- Ki [2]: 0.65 nM
- clearance [14]: 0.3 mL/min/kg
- clearance [16]: 0.13 mL/min/kg
- clearance [17]: 3 mL/min/kg
- half-life [18]: 5100 min
- turnover at 0.25 h [8]: 15.8%
- concentration at 0.5 h [19]: 5770 nM
- remaining at 0.25 h [20]: 23%
- half-life [21]: 5.58 days
- remaining at 0.25 h [22]: 0%
- Ki [11]: 127 nM
- remaining at 0.25 h [23]: < 10%
- half-life [24]: 1680 min
- concentration at 0.5 h [25]: 2730 nM
Structure (SMILES): NC(=O)c1ccccc1S(=O)(=O)c1ccc(/C=C/c2ccc(F)cc2F)cc1
- inhibition in vivo at 10 mg/kg (Rattus norvegicus [15]): 100%
- Ki [6]: > 9 µM
- Activity (Rattus norvegicus [9]): > 100%

- turnover at 0.25 h [8]: 99%
- Ki [11]: 100 nM
Structure (SMILES): O=C(c1ccccc1F)N1CCC(CCc2ccc(F)cc2F)CC1
- Ki [6]: > 9 µM
- Activity (Rattus norvegicus [9]): 40%

- Ki [11]: 69 nM
Structure (SMILES): O=S(=O)(c1ccc(F)cc1)C1(F)CCN(CCc2ccc(F)cc2F)CC1
- Activity (Rattus norvegicus [9]): 98%

- Ki [2]: 2.1 nM
- Ki [11]: 184 nM
Structure (SMILES): O=S(=O)(c1cccc2cccnc12)N1CCC(CCc2ccc(F)cc2F)CC1
- Ki [6]: > 9 µM
